This assay concerns the target Cell division control protein 42 homolog (Homo sapiens) (UniProt P60953). The experiment in a line: fluorescent GTP binding blockers of active-mutant Cdc42 – biochemical, pyrazoline analogs, multiplex bead flow cytometry, Ki, SAR follow-up (AID 2020). The note with it: bead-based flow cytometry, Bodipy-FL-GTP binding; for pKi: measured here: Ki calculated from EC50.

pEC50, pKi: −log10 of the molar value. Activity calls are given as the source filed them.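 Rule for the calls: active = EC50 at or below 30 µM together with a response span of at least a set limit; inactive = the rest.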

Cell division control protein 42 homolog (Homo sapiens), sequence (P60953 whole entry, looked up, change not shown): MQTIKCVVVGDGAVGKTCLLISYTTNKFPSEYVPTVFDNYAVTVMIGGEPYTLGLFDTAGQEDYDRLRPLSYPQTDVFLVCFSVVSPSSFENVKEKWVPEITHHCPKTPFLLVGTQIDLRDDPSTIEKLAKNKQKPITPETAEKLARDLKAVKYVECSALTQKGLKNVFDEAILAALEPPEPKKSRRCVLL

One may read the pEC50 as −log10 of the EC50, conventionally taken in molar units. Broadly, the pKi is the Ki on a negative log10 scale, so that one unit is a factor of ten. As to `NS(=O)(=O)c1ccc(N2N=C(c3ccccc3)CC2c2ccccc2Cl)cc1` (stereo not drawn), the pEC50 is 5.13 and the pKi was 5.94.
Broadly, the EC50 is the concentration at which the effect is half-maximal. For `COc1ccc(C2CC(c3ccc(C)cc3)=NN2c2ccc(S(N)(=O)=O)cc2)cc1` (stereo not drawn), the EC50 result was “inactive” and the pKi was 6.43.
Turning to `COc1ccc(C2CC(C(C)(C)C)=NN2c2ccc(S(N)(=O)=O)cc2)cc1` (stereo not drawn), the EC50 is > 30 µM (inactive).
With `Cc1ccccc1C1CC(c2ccccc2)=NN1c1ccc(S(N)(=O)=O)cc1` (stereo not drawn), the pEC50 is 4.87 and the pKi is 5.68.
On to `COc1ccc(C2CC(c3ccc(F)cc3)=NN2c2cccc(F)c2)cc1OC` (stereo not drawn), for which the EC50 result is “inactive” and the pKi is 5.31.
For the compound `O=S(=O)(O)c1ccc(N2N=C(c3ccccc3)CC2c2ccccc2)cc1` (stereo not drawn), the EC50 was > 30 µM (inactive).
Turning to `O=[N+]([O-])c1cccc(C2CC(c3ccccc3)=NN2c2ccccc2)c1` (stereo not drawn), the EC50 is > 30 µM (inactive).
`COc1ccc(C2CC(c3ccccc3Cl)=NN2c2ccc(S(N)(=O)=O)cc2)cc1` (stereo not drawn): the pEC50 is 5.54 and the pKi was 6.35.
In the same order, the values of `COc1ccc(C2CC(c3ccccc3)=NN2c2ccc(S(N)(=O)=O)cc2)cc1OC` (stereo not drawn) are 5.22 and 6.03.
As to `COc1ccc(-c2cc(-c3ccccc3)nn2-c2ccc(S(N)(=O)=O)cc2)cc1`, the EC50 entry was “inactive” and the pKi was 6.42.
With `COc1ccc(C2CC(c3cccs3)=NN2c2ccc(S(N)(=O)=O)cc2)cc1` (stereo not drawn), the pEC50 is 5.40 and the pKi was 6.21.
`COc1cccc(C2CC(c3ccccc3)=NN2c2ccc(S(N)(=O)=O)cc2)c1` (stereo not drawn): the pEC50 is 5.37 and the negative-log Ki (pKi) is 6.17.
Regarding `Cc1cccc(C2CC(c3ccccc3)=NN2c2ccc(S(N)(=O)=O)cc2)c1` (stereo not drawn), the pEC50 was 5.28 and the pKi is 6.09.
Consider `COc1ccc(C2=NN(c3ccccc3)C(c3ccc(OC)c(OC)c3C(=O)O)C2)cc1` (stereo not drawn), for which the EC50 is > 30 µM (inactive).
Turning to `NS(=O)(=O)c1ccc(N2N=C(c3ccccc3)CC2c2cccc(Br)c2)cc1` (stereo not drawn), the pEC50 is 5.43 and the pKi is 6.24.
In the case of `NS(=O)(=O)c1ccc(N2N=C(c3ccccc3)CC2c2ccc(Cl)cc2)cc1` (stereo not drawn), the pEC50 is 5.44 and the pKi was 6.25.
For the compound `COc1ccc(C2=NN(c3ccc(Cl)cc3)C(c3ccccc3F)C2)cc1` (stereo not drawn), the EC50 is > 30 µM (inactive).
Take `COc1ccc(C2CC(c3cccc(Cl)c3)=NN2c2ccc(S(N)(=O)=O)cc2)cc1` (stereo not drawn): the pEC50 was 5.68 and the pKi is 6.49.
With `Cc1onc(-c2ccccc2)c1-c1ccc(S(N)(=O)=O)cc1`, the EC50 was > 30 µM (inactive).
As to `COc1ccc(C2CC(c3ccc(F)cc3)=NN2c2ccc(S(N)(=O)=O)cc2)cc1` (stereo not drawn), the pEC50 was 5.26 and the pKi is 6.07.
`CN(C)c1ccc(C2CC(c3ccccc3)=NN2c2ccccc2)cc1` (stereo not drawn): the EC50 result is “inactive” and the negative-log Ki (pKi) was 8.00.
With `Cc1cccc(N2N=C(c3ccccc3)CC2c2ccccc2)c1` (stereo not drawn), the EC50 is > 30 µM (inactive).
As for `COc1ccc(C2CC(c3cccc(Br)c3)=NN2c2ccc(S(N)(=O)=O)cc2)cc1` (stereo not drawn), the EC50 entry is “inactive” and the pKi is 6.49.
Take `COc1ccc(C2=NN(c3ccccc3F)C(c3ccc(F)cc3)C2)cc1` (stereo not drawn): the EC50 is > 30 µM (inactive).
`Fc1ccccc1C1CC(c2ccc(Br)cc2)=NN1c1ccc(Br)cc1` (stereo not drawn): the EC50 is > 30 µM (inactive).
Turning to `COc1ccc(C2CC(c3ccccc3)=NN2c2ccc(C(=O)O)cc2)cc1` (stereo not drawn), the EC50 is > 30 µM (inactive).
With `COc1ccc(C2=NN(c3ccccc3)C(c3ccc(Cl)cc3)C2)cc1` (stereo not drawn), the EC50 was > 30 µM (inactive).
Turning to `COc1ccc(C2CC(c3ccccc3C(F)(F)F)=NN2c2ccc(S(N)(=O)=O)cc2)cc1` (stereo not drawn), the EC50 was > 30 µM (inactive).
For `Cc1ccc(-c2cc(C(F)(F)F)nn2-c2ccc(S(N)(=O)=O)cc2)cc1`, the EC50 is > 30 µM (inactive).
In the case of `O=[N+]([O-])c1cccc(C2CC(c3ccc(F)cc3)=NN2c2ccccc2)c1` (stereo not drawn), the EC50 is > 30 µM (inactive).
As to `NS(=O)(=O)c1ccc(N2N=C(c3ccc(Br)cc3)CC2c2ccc(F)cc2)cc1` (stereo not drawn), the EC50 is > 30 µM (inactive).
As to `COc1ccccc1C1CC(c2ccccc2)=NN1c1ccccc1` (stereo not drawn), the EC50 entry is “inactive” and the pKi is 7.05.
For the compound `COc1ccc(C2CC(c3ccccc3)=NN2c2ccc(Cl)c(C(=O)O)c2)cc1OC` (stereo not drawn), the EC50 was > 30 µM (inactive).
Regarding `NS(=O)(=O)c1ccc(N2N=C(c3ccccc3)CC2c2ccccc2)cc1` (stereo not drawn), the pEC50 was 4.78 and the pKi is 5.59.
As for `COc1ccc(C2CC(c3ccccc3C)=NN2c2ccc(S(N)(=O)=O)cc2)cc1` (stereo not drawn), the EC50 result is “inactive” and the pKi is 6.44.
For the compound `O=C(O)c1ccc(N2N=C(c3ccccc3)CC2c2ccccc2)cc1` (stereo not drawn), the EC50 is > 30 µM (inactive).
On the same count and under the same terms, in the case of `COc1ccc(C2CC(c3ccc(N(C)C)cc3)=NN2c2ccc(S(N)(=O)=O)cc2)cc1` (stereo not drawn) it was > 30 µM (inactive).
As for `NS(=O)(=O)c1ccc(N2N=C(c3ccccc3)CC2c2ccc(Br)cc2)cc1` (stereo not drawn), the pEC50 was 5.77 and the pKi is 6.59.
As for `Cc1ccc(C2CC(c3ccccc3)=NN2c2ccc(S(N)(=O)=O)cc2)cc1` (stereo not drawn), the pEC50 is 5.30 and the pKi is 6.11.
As to `COc1ccc(C2CC(c3cccc(F)c3)=NN2c2ccc(S(N)(=O)=O)cc2)cc1` (stereo not drawn), the pEC50 was 5.46 and the pKi was 6.28.
On to `FC(F)(F)c1cccc(N2N=C(c3ccc(Cl)cc3)CC2c2ccccc2Cl)c1` (stereo not drawn), for which the EC50 is > 30 µM (inactive).
In the case of `Brc1ccc(N2N=C(c3ccccc3)CC2c2ccccc2)cc1` (stereo not drawn), the EC50 is > 30 µM (inactive).
For the compound `COc1ccc(C2=NN(c3cccc(F)c3)C(c3ccc(Cl)cc3)C2)cc1` (stereo not drawn), the EC50 result was “inactive” and the pKi was 5.31.
For the compound `CN(C)c1ccc(C2CC(c3ccc(Br)cc3)=NN2c2ccccc2)cc1` (stereo not drawn), the EC50 was > 30 µM (inactive).
Consider `COc1ccc(C2=NN(c3ccccc3)C(c3ccccc3C(F)(F)F)C2)cc1` (stereo not drawn), for which the EC50 entry is “inactive” and the pKi is 5.46.
In the case of `O=S(=O)(c1ccc(N2N=C(c3ccccc3)CC2c2ccccc2)cc1)C(F)F` (stereo not drawn), the EC50 was > 30 µM (inactive).
On to `COc1ccc(C2=NN(c3ccc(Cl)c(Cl)c3)C(c3ccc(OC)cc3)C2)cc1` (stereo not drawn), for which the EC50 is > 30 µM (inactive).
Turning to `COc1ccc(C2CC(c3ccc(Cl)cc3)=NN2c2ccccc2)cc1OC` (stereo not drawn), the EC50 is > 30 µM (inactive).
Still for that read-out and setting: in the case of `O=S(=O)(c1ccc(N2N=C(c3ccc(Br)cc3)CC2c2ccccc2)cc1)C(F)F` (stereo not drawn) it was > 30 µM (inactive).
For `COc1ccc(C2CC(c3ccccc3OC)=NN2c2ccc(S(N)(=O)=O)cc2)cc1` (stereo not drawn), the pEC50 was 5.26 and the pKi was 6.07.
As to `COc1ccccc1C1CC(c2ccccc2)=NN1c1ccc(S(N)(=O)=O)cc1` (stereo not drawn), the EC50 was > 30 µM (inactive).
For the compound `COc1ccc(C2CC(c3ccc(F)cc3)=NN2c2ccccc2)cc1OC` (stereo not drawn), the EC50 was > 30 µM (inactive).
In the case of `COc1ccc(C2=NN(c3cccc(F)c3)C(c3ccc(OC)cc3)C2)cc1` (stereo not drawn), the EC50 is > 30 µM (inactive).
For the compound `Cc1ccccc1N1N=C(c2ccccc2)CC1c1cccc([N+](=O)[O-])c1` (stereo not drawn), the EC50 was > 30 µM (inactive).
`COc1ccc(C2CC(c3ccncc3)=NN2c2ccc(S(N)(=O)=O)cc2)cc1` (stereo not drawn): the EC50 is > 30 µM (inactive).
Take `NS(=O)(=O)c1ccc(N2N=C(c3ccccc3)CC2c2cccc(Cl)c2)cc1` (stereo not drawn): the pEC50 was 5.44 and the pKi was 6.25.
As for `CN(C)c1ccc(C2CC(c3ccc(Cl)cc3)=NN2c2ccccc2)cc1` (stereo not drawn), the EC50 entry was “inactive” and the pKi is 5.33.
As to `COc1ccc(C2CC(c3cccc(N(C)C)c3)=NN2c2ccc(S(N)(=O)=O)cc2)cc1` (stereo not drawn), the EC50 is > 30 µM (inactive).
Same read-out and setting: in the case of `O=[N+]([O-])c1ccc(N2N=C(c3ccccc3)CC2c2ccccc2)cc1` (stereo not drawn) it was > 30 µM (inactive); in that of `COc1ccc(C2CC(C)=NN2c2ccc(S(N)(=O)=O)cc2)cc1` (stereo not drawn), > 30 µM (inactive); in that of `CN(C)c1ccc(C2CC(c3ccccc3)=NN2c2ccc([N+](=O)[O-])cc2)cc1` (stereo not drawn), > 30 µM (inactive).

The record behind these values is PubChem BioAssay AID2020 (NMMLSC, 2009).
